In test [1] the target is T1, HDAC3 (Homo sapiens, UniProt O15379).
T1 construct: purchased BPS Bioscience
As to the kind of experiment: HDAC3 fluorescent-based enzymatic activity assay. Format: biochemical. The note with it: Table 3 isoform panel; read-out: Enzyme inhibition HDAC3 (Class I). The method, then: (§1) The purified recombinant Human HDACs and their corresponding substrates were purchased from BPS Bioscience (BPS Bioscience Inc., United States). The assays were carried out in a 384-well format using the BPS fluorescent–based HDAC activity assay according to the manufacturer’s protocol. In brief, […] of the HDAC reaction mixture was composed of HDAC assay buffer, […] BSA, serial diluted test compounds, appropriate concentration of HDACs, and […] fluorogenic substrate, the mixture was incubated at 37°C for 60 min, and then stopped by the addition of developer containing trypsin and TSA. After 20 min of incubation, the fluorescence was detected at the excitation wavelength of 360 nm and the emission wavelength of 460 nm using the EnVision Multilabel Reader (PerkinElmer Inc., United States). The analytical software, GraphPad Prism 5.0 (GraphPad Software, Inc., United States) was used to generate IC50 value via non-linear regression analysis.

Test [2] concerns the target T2, HDAC1 (Homo sapiens, UniProt Q13547).
T2 construct: purchased BPS Bioscience
As to the kind of experiment: HDAC1 fluorescent-based enzymatic activity assay. Format: biochemical. How it is done:
as §1

Test [3] concerns the target T3, HDAC5 (Homo sapiens, UniProt Q9UQL6).
T3 construct: purchased BPS Bioscience
As to the kind of experiment: HDAC5 fluorescent-based enzymatic activity assay. Format: biochemical. The note with it: Table 3 isoform panel; read-out: Enzyme inhibition HDAC5 (Class IIA). The method, then:
as §1

In test [4] the test system is HT-29 cells. As to the kind of experiment: Antiproliferation CCK-8 assay, HT-29. Format: cell-based. The note with it: Homo sapiens; CCK-8, 72 h, HT-29 (BRAF^V600E); means of three independent experiments; read-out: Cellular IC50 HT-29. How it is done:
HCT116 and HT-29 cells were obtained from the Shanghai Cell Bank (Type Culture Collection (TCC), Chinese Academy of Sciences) and cultured in DMEM (10–013-CVR, corning) supplemented with 10% fetal bovine serum (04-001-1A, BI), 1% penicillin/streptomycin (03-031-1B, BI).
The cells in the logarithmic phase were placed in 96-well plates (∼3000 cells/well) in a complete medium. After incubation overnight, the cells were exposed to the corresponding compounds or vehicle control at the indicated concentration for a further 72 h. Cell proliferation was evaluated using Cell Counting Kit 8 (CCK8, CK04, Dojindo Laboratories, Kumamoto, Japan). OD450 and OD650 were determined using a microplate reader. Absorbance rate (A) for each well was calculated as OD450 −OD650. […] Each IC50 value is expressed as mean ± SD. As is the absorbance rate of the test compound well, Ac is the absorbance rate of the well without either the cell or test compound, and Ab is the absorbance rate of the well with the cell and vehicle control.

The subject of test [5] is P-ERK in B16 cells. As to the kind of experiment: Immunoblot analysis of P-ERK in B16 cells. Format: cell-based. The note with it: B16 mouse melanoma cells with wild type BRAF, 24 h. The source says:
Supplementary Figure 2. 14b inhibit the phosphorylation of ERK in B16 cells.

The target of test [6] is T4, BRAF (wild-type) (Homo sapiens, UniProt P15056).
T4 construct: purchased Invitrogen
Kind of test: wild-type BRAF enzymatic activity, Z'-Lyte kinase assay. Format: biochemical. The note with it: wild-type BRAF kinase; read-out: BRAF^wt enzymatic IC50. The method, then:
(§2) The experiments were performed according to the instructions of the manufacturer. […] For each assay, 10 μl kinase reactions were added to 384-well plate, mixed thoroughly, and incubated for 1 hour at room temperature. Then, a 5 μl development solution was added to each well and the plate was incubated for another 1 h at room temperature. Then, a 5 μl stop reagent was loaded to stop the reaction. For the control setting, a 5 μl phospho-peptide solution instead of kinase/peptide mixture was used as 100% phosphorylation control. […] The plate was measured on an EnVision Multilabel Reader (Perkin-Elmer). Curve fitting and data presentations were performed using GraphPad Prism, version 5.0. Every experiment was repeated at least two times.

Test [7] concerns BRAF (wild-type). The description is as above. Format: biochemical. The note with it: ratio of enzymatic IC50. The method, then: as §2
The target of test [8] is T5, HDAC2 (Homo sapiens, UniProt Q92769).
T5 construct: purchased BPS Bioscience
As to the kind of experiment: HDAC2 fluorescent-based enzymatic activity assay. Format: biochemical. The note with it: Table 3 isoform panel; read-out: Enzyme inhibition HDAC2 (Class I). The method, then:
as §1

For test [9], the target named is T6, HDAC7 (Homo sapiens, UniProt Q8WUI4).
T6 construct: purchased BPS Bioscience
T6 sequence (Q8WUI4 1-952): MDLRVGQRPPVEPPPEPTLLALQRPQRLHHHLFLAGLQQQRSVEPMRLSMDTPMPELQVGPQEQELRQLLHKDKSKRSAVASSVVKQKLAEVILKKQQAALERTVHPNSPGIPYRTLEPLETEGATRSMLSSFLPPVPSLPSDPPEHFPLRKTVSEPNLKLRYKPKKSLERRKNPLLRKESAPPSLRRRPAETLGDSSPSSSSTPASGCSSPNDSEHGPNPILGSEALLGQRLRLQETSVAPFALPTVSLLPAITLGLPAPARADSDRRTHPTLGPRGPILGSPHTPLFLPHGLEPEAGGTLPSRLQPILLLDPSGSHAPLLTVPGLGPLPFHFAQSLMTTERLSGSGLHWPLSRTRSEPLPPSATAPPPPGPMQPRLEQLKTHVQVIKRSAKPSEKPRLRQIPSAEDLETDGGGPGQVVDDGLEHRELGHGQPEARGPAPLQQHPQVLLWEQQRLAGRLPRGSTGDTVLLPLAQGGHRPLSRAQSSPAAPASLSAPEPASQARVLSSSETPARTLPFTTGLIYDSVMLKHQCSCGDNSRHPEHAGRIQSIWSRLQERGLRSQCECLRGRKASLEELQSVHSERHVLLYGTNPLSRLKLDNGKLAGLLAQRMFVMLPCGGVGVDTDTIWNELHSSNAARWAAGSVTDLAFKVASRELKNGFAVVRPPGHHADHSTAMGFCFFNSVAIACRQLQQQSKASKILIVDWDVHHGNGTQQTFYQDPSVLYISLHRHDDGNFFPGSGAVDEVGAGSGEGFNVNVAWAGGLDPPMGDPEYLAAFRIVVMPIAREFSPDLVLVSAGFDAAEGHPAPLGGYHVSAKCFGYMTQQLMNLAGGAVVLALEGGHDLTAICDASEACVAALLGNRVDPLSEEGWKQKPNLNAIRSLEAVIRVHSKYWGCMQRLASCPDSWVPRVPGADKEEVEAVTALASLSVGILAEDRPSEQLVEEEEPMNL
Kind of test: HDAC7 fluorescent-based enzymatic activity assay. Format: biochemical. The note with it: Table 3 isoform panel; read-out: Enzyme inhibition HDAC7 (Class IIA). How it is done: as §1

Test [10] has as its target T7, HDAC4 (Homo sapiens, UniProt P56524).
T7 construct: purchased BPS Bioscience
Kind of test: HDAC4 fluorescent-based enzymatic activity assay. Format: biochemical. The note with it: Table 3 isoform panel; read-out: Enzyme inhibition HDAC4 (Class IIA). How it is done: as §1

“Also recorded” adds a separate entry of the source. Where two headings read alike, the source gives them in different places. Some results are limits rather than exact numbers.

T2 sequence (Q13547 whole entry): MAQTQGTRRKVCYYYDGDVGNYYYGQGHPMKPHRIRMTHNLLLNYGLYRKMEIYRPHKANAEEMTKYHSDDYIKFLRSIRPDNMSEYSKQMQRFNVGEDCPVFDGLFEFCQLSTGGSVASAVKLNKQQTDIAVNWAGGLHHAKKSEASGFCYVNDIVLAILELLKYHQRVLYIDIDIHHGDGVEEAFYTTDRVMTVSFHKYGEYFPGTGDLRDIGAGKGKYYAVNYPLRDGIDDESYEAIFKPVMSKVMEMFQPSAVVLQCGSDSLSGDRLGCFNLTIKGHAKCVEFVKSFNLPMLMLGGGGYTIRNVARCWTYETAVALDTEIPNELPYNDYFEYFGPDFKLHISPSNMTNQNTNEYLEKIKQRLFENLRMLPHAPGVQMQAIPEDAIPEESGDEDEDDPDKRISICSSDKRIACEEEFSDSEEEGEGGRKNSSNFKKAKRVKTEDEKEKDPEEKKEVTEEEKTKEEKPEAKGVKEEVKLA
T4 sequence (P15056 whole entry): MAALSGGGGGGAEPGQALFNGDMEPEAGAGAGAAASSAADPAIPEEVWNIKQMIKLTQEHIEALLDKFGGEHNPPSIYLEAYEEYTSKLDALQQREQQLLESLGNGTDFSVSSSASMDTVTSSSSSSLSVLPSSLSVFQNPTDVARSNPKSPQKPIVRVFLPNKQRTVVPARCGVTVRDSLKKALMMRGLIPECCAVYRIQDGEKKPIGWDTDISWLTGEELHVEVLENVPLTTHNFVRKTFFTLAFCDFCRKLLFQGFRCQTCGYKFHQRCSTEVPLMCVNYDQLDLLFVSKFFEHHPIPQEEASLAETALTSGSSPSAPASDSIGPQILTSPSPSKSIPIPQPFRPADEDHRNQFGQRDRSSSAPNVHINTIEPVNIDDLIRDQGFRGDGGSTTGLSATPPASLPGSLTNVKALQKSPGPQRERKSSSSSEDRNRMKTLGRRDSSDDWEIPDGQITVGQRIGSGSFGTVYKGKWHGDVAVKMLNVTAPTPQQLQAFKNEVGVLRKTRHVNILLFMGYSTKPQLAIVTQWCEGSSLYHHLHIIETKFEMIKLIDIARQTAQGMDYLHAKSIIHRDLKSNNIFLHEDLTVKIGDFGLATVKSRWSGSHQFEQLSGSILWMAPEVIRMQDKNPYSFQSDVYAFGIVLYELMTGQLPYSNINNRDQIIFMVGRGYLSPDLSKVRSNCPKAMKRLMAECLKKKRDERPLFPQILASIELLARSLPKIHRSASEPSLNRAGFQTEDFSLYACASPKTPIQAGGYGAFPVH
T5 sequence (Q92769 whole entry): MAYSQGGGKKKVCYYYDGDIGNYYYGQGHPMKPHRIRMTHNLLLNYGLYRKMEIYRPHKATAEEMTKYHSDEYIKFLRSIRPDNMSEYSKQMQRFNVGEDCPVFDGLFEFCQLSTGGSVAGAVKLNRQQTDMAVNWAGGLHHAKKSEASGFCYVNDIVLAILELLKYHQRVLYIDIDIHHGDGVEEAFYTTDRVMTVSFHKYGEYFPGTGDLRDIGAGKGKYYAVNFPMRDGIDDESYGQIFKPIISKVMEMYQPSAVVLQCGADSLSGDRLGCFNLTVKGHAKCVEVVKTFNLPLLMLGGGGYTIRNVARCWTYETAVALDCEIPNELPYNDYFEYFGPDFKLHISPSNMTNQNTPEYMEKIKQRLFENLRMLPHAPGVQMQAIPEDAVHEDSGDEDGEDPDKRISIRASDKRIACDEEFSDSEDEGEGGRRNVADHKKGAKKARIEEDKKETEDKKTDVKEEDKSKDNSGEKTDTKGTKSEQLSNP
T3 sequence (Q9UQL6 whole entry): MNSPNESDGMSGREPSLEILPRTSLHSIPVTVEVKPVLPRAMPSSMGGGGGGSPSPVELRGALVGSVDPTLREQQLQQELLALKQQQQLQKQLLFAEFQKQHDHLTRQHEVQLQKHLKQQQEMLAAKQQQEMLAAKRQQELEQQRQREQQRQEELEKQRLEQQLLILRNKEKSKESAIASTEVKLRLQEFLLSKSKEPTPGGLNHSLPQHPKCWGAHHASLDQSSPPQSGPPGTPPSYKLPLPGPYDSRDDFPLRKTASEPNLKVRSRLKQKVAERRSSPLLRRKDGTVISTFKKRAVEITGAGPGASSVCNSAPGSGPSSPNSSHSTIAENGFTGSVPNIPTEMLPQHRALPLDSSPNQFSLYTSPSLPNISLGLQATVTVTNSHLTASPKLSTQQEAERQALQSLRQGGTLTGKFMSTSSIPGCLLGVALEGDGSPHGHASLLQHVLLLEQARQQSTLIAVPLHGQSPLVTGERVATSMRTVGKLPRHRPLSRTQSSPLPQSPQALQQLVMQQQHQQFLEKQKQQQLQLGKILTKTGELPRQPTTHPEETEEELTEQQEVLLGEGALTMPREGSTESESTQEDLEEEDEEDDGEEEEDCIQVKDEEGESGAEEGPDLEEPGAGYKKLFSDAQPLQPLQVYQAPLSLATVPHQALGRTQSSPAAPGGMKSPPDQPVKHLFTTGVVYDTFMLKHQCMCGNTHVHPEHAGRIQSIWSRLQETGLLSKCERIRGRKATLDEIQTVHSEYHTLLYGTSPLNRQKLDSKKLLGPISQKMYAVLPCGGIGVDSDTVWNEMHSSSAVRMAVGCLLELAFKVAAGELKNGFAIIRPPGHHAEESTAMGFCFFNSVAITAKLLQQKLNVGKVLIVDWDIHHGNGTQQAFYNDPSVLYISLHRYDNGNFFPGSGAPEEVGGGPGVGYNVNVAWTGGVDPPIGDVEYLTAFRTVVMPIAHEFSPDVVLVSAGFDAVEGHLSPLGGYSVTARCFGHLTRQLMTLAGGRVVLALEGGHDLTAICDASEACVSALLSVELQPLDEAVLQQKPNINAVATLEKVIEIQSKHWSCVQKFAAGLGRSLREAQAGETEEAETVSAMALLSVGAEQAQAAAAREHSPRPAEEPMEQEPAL
T1 sequence (O15379 whole entry): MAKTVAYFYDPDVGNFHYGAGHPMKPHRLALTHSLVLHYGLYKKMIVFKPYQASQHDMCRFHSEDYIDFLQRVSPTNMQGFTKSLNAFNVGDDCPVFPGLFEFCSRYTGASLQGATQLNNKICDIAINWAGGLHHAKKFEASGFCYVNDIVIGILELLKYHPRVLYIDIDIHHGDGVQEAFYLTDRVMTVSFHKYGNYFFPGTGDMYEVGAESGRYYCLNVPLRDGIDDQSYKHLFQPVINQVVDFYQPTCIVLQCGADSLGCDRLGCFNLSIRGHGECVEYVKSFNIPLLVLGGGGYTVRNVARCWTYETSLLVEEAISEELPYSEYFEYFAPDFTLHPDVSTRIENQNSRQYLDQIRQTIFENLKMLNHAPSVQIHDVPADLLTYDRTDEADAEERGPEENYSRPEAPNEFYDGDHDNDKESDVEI
T1 sequence (Q9Y618 395-489 partner limits assumed): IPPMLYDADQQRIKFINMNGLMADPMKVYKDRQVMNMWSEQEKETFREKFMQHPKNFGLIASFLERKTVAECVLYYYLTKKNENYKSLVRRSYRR
T7 sequence (P56524 whole entry): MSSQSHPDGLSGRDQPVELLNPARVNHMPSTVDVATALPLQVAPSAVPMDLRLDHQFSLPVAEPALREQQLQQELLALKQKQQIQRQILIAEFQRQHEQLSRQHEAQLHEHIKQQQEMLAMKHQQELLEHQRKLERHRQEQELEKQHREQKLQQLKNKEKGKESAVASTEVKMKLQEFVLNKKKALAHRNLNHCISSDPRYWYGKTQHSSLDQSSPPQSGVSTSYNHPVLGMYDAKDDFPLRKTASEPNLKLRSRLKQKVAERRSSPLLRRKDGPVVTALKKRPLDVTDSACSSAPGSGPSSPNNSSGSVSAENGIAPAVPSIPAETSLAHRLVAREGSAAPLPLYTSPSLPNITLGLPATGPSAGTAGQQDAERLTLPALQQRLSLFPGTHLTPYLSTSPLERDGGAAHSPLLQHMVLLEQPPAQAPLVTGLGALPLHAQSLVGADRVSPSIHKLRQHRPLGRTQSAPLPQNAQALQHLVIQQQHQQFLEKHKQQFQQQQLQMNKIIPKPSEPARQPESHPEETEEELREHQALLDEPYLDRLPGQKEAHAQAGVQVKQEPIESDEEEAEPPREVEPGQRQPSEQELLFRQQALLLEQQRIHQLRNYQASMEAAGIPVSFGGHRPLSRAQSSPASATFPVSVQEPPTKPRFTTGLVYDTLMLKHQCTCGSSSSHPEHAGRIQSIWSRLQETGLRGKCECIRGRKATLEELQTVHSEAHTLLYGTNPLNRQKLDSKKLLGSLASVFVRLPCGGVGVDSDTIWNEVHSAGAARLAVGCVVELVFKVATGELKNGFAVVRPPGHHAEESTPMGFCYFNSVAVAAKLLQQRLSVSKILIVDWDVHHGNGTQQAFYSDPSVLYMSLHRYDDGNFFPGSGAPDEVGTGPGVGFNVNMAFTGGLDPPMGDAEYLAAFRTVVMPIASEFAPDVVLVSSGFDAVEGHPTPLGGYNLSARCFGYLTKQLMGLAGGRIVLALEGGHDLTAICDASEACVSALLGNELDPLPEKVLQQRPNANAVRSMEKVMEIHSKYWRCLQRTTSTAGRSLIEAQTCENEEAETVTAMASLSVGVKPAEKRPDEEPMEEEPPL

With `CC(C)(C)c1nc(-c2cccc(NS(=O)(=O)c3c(F)cccc3F)c2F)c(-c2ccnc(NCCCCCCC(=O)NO)n2)s1` [14b, 7-{[4-(2-(Tert-Butyl)-4-(3-((2,6-Difluorophenyl)Sulfonamido)-2-Fluorophenyl)Thiazol-5-yl)Pyrimidin-2-yl]Amino}-N-Hydroxyheptanamide], the IC50 in test [1] came to 0.913 µM; in test [2] (Table 1, read-out: Enzymatic IC50 HDAC1), 0.494 µM; in test [2] (Table 3 isoform panel, read-out: Enzyme inhibition HDAC1 (Class I)), 0.493 µM; in test [3] it was 52.9 µM; in test [4], 0.31 µM; in test [6], 0.00407 µM. Moreover, the values for the IC50 in test [8], in [9] and in test [10] were 0.747 µM, 43.3 µM and over 100 µM, respectively. Moreover, in test [5], the “phosphorylation of ERK (P-ERK)” value is “downregulate P-ERK; also recorded: p-ERK inhibition was observed”. For the same compound, the “selectivity of BRAF^V600E over wild-type BRAF” value in [7] was “about 2 fold”.

The values are drawn from article PMC9354042, “Discovery of BRAF/HDAC Dual Inhibitors Suppressing Proliferation of Human Colorectal Cancer Cells” (Frontiers in Chemistry, 2022).
